According to patent publication US10314823B2, “Substituted 1,2-dihydro-3H-pyrrolo[1,2-c]imidazol-3-one antibacterial compounds” (IDORSIA PHARMACEUTICALS LTD, priority 2015, dated 2019):
In brackets after ≈: the same amount, converted by molar mass.

Legend:
Assay in all cases: Bacterial growth minimal inhibitory concentration (CLSI broth microdilution)
Format in all cases: cell-based
P. aeruginosa ATCC27853 = details: Pseudomonas aeruginosa, ATCC27853; quinolone-sensitive strain; cation-adjusted Mueller-Hinton Broth
Experimental: (§1) Minimal Inhibitory Concentrations (MICs; mg/L) were determined in cation-adjusted Mueller-Hinton Broth by a microdilution method following the description given in “Methods for Dilution Antimicrobial Susceptibility Tests for Bacteria that Grow Aerobically”, Approved standard, 7th ed., Clinical and Laboratory Standards Institute (CLSI) Document M7-A7, Wayne, Pa., USA (2006).
(§2) All Reference Example compounds were tested against several Gram-negative bacteria. K. pneumoniae A-651 is a multiply resistant strain (in particular quinolone-resistant), while E. coli ATCC25922 and P. aeruginosa ATCC27853 are quinolone-sensitive strains. The corresponding antibacterial test results are given in Table 1 hereafter (MICs in mg/L).

E. coli ATCC25922 = details: Escherichia coli, ATCC25922; quinolone-sensitive strain; cation-adjusted Mueller-Hinton Broth
Experimental: as §1, §2

K. pneumoniae A-651 = details: Klebsiella pneumoniae, A651; multiply resistant strain (in particular quinolone-resistant); cation-adjusted Mueller-Hinton Broth
Experimental: as §1, §2

Row | MIC (P. aeruginosa ATCC27853) [µg/mL] | MIC (E. coli ATCC25922) [µg/mL] | MIC (K. pneumoniae A-651) [µg/mL] | Compound
1 | 1 (≈ 1.86 µM) | 0.125 (≈ 0.233 µM) | 0.5 (≈ 0.93 µM) | C[C@@](CCN1Cc2cc(C#Cc3ccc(OCCS(C)(=O)=O)cc3)cn2C1=O)(C(=O)NO)S(C)(=O)=O [Example 25, (2R)—N-hydroxy-2-methyl-2-(methylsulfonyl)-4-(6-((4-(2-(methylsulfonyl)ethoxy)phenyl)ethynyl)-3-oxo-1H-pyrrolo[1,2-c]imidazol-2(3H)-yl)butanamide]
2 | 1 (≈ 1.9 µM) | 0.25 (≈ 0.475 µM) | 1 (≈ 1.9 µM) | C[C@@](CCN1Cc2cc(C#Cc3ccc(CN4CC5(COC5)C4)cc3)cn2C1=O)(C(=O)NO)S(C)(=O)=O [Example 3, (2R)-4-(6-((4-((2-oxa-6-azaspiro[3.3]heptan-6-yl)methyl)phenyl)ethynyl)-3-oxo-1H-pyrrolo[1,2-c]imidazol-2(3H)-yl)-N-hydroxy-2-methyl-2-(methylsulfonyl)butanamide]
3 | 2 (≈ 4.48 µM) | 4 (≈ 8.96 µM) | 4 (≈ 8.96 µM) | C[C@@H]1[C@H](C#CC#Cc2cc3n(c2)C(=O)N(CC[C@](C)(C(=O)NO)S(C)(=O)=O)C3)CN1C [Example 96, (2R)-4-(6-(((2R,3R)-1,2-dimethylazetidin-3-yl)buta-1,3-diyn-1-yl)-3-oxo-1H-pyrrolo[1,2-c]imidazol-2(3H)-yl)-N-hydroxy-2-methyl-2-(methylsulfonyl)butanamide]
4 | 1 | 2 | 1 | CN1CCC(C#CC#Cc2cc3n(c2)C(=O)N(CC[C@](C)(C(=O)NO)S(C)(=O)=O)C3)C1 (mixture of isomers) [Example 83, (2R)—N-hydroxy-2-methyl-4-(6-(((3RS)-1-methylpyrrolidin-3-yl)buta-1,3-diyn-1-yl)-3-oxo-1H-pyrrolo[1,2-c]imidazol-2(3H)-yl)-2-(methylsulfonyl)butanamide]
5 | 1 (≈ 2.03 µM) | 0.5 (≈ 1.02 µM) | 1 (≈ 2.03 µM) | C[C@@](CCN1Cc2cc(C#CC#CCOC(=O)N3CC(O)C3)cn2C1=O)(C(=O)NO)S(C)(=O)=O [Example 24, (3R)-5-(2-(4-(hydroxyamino)-3-methyl-3-(methylsulfonyl)-4-oxobutyl)-3-oxo-2,3-dihydro-1H-pyrrolo[1,2-c]imidazol-6-yl)penta-2,4-diyn-1-yl 3-hydroxyazetidine-1-carboxylate]
6 | > 8 | 8 (≈ 15.4 µM) | 8 (≈ 15.4 µM) | C[C@@](CCN1Cc2cc(C#CC#CC3(O)CCN(C4COC4)CC3)cn2C1=O)(C(=O)NO)S(C)(=O)=O [Example 45, (2R)—N-hydroxy-4-(6-((4-hydroxy-1-(oxetan-3-yl)piperidin-4-yl)buta-1,3-diyn-1-yl)-3-oxo-1H-pyrrolo[1,2-c]imidazol-2(3H)-yl)-2-methyl-2-(methylsulfonyl)butanamide]
7 | 4 | 1 | 2 | C[C@@](CCN1Cc2cc(C#Cc3ccc(CN4CC(CO)OC4=O)cc3)cn2C1=O)(C(=O)NO)S(C)(=O)=O (mixture of isomers) [Example 12, (2R)—N-hydroxy-4-(6-((4-((RS)-(5-(hydroxymethyl)-2-oxooxazolidin-3-yl)methyl)phenyl)ethynyl)-3-oxo-1H-pyrrolo[1,2-c]imidazol-2(3H)-yl)-2-methyl-2-(methylsulfonyl)butanamide]
8 | 2 | 0.5 | 0.5 | CN1CC[C@](F)(C#CC#Cc2cc3n(c2)C(=O)N(CC[C@](C)(C(=O)NO)S(C)(=O)=O)C3)C1.O=C(O)C(F)(F)F (single isomer, unassigned) [Example 72]
9 | 0.25 (≈ 0.5 µM) | 0.5 (≈ 0.999 µM) | 4 (≈ 7.99 µM) | C[C@@](CCN1Cc2cc(C#CC#CC3CN(CC(F)(F)F)C3)cn2C1=O)(C(=O)NO)S(C)(=O)=O [Example 58, (2R)—N-hydroxy-2-methyl-2-(methylsulfonyl)-4-(3-oxo-6-((1-(2,2,2-trifluoroethyl)azetidin-3-yl)buta-1,3-diyn-1-yl)-1H-pyrrolo[1,2-c]imidazol-2(3H)-yl)butanamide]
10 | 0.5 (≈ 0.999 µM) | 0.125 (≈ 0.25 µM) | 0.25 (≈ 0.499 µM) | C[C@@](CCN1Cc2cc(C#CC#CC3CN(C4CCCCC4)C3)cn2C1=O)(C(=O)NO)S(C)(=O)=O [Example 70, (2R)-4-(6-((1-cyclohexylazetidin-3-yl)buta-1,3-diyn-1-yl)-3-oxo-1H-pyrrolo[1,2-c]imidazol-2(3H)-yl)-N-hydroxy-2-methyl-2-(methylsulfonyl)butanamide]
11 | 0.25 (≈ 0.56 µM) | 0.25 (≈ 0.56 µM) | 0.25 (≈ 0.56 µM) | C[C@H]1[C@H](C#CC#Cc2cc3n(c2)C(=O)N(CC[C@](C)(C(=O)NO)S(C)(=O)=O)C3)CN1C [Example 92, (2R)-4-(6-(((2S,3R)-1,2-dimethylazetidin-3-yl)buta-1,3-diyn-1-yl)-3-oxo-1H-pyrrolo[1,2-c]imidazol-2(3H)-yl)-N-hydroxy-2-methyl-2-(methylsulfonyl)butanamide]
12 | 2 (≈ 3.84 µM) | 1 (≈ 1.92 µM) | 2 (≈ 3.84 µM) | C[C@@](CCN1Cc2cc(C#CC#CCOC(=O)N3CCC(O)CC3)cn2C1=O)(C(=O)NO)S(C)(=O)=O [Example 8, (3R)-5-(2-(4-(hydroxyamino)-3-methyl-3-(methylsulfonyl)-4-oxobutyl)-3-oxo-2,3-dihydro-1H-pyrrolo[1,2-c]imidazol-6-yl)penta-2,4-diyn-1-yl 4-hydroxypiperidine-1-carboxylate]
13 | 1 (≈ 2.15 µM) | 1 (≈ 2.15 µM) | 2 (≈ 4.3 µM) | [2H]C([2H])([2H])S(=O)(=O)[C@](C)(CCN1Cc2cc(C#CC#CC3CN(CCO)C3)cn2C1=O)C(=O)NO [Example 81, (2R)—N-hydroxy-4-(6-((1-(2-hydroxyethyl)azetidin-3-yl)buta-1,3-diyn-1-yl)-3-oxo-1H-pyrrolo[1,2-c]imidazol-2(3H)-yl)-2-methyl-2-((methyl-d3)sulfonyl)butanamide]
14 | 8 (≈ 15.1 µM) | 4 (≈ 7.54 µM) | > 8 | CN1CCC(C#Cc2ccc(-c3cc4n(c3)C(=O)N(CC[C@](C)(C(=O)NO)S(C)(=O)=O)C4)c(F)c2)CC1 [Example 87, (2R)-4-(6-(2-fluoro-4-((1-methylpiperidin-4-yl)ethynyl)phenyl)-3-oxo-1H-pyrrolo[1,2-c]imidazol-2(3H)-yl)-N-hydroxy-2-methyl-2-(methylsulfonyl)butanamide]
15 | 0.5 (≈ 1.15 µM) | 0.5 (≈ 1.15 µM) | 0.5 (≈ 1.15 µM) | [2H]C([2H])N1CC(C#CC#Cc2cc3n(c2)C(=O)N(CC[C@](C)(C(=O)NO)S(C)(=O)=O)C3)C1 [Example 52, (2R)—N-hydroxy-2-methyl-4-(6-((1-(methyl-d2)azetidin-3-yl)buta-1,3-diyn-1-yl)-3-oxo-1H-pyrrolo[1,2-c]imidazol-2(3H)-yl)-2-(methylsulfonyl)butanamide]
16 | 0.5 (≈ 1.05 µM) | 1 (≈ 2.1 µM) | 1 (≈ 2.1 µM) | CN1C[C@@H](C#CC#Cc2cc3n(c2)C(=O)N(CC[C@](C)(C(=O)NO)S(C)(=O)=O)C3)C[C@@H]1CO (single isomer, unassigned) [Example 94]
17 | 1 (≈ 1.77 µM) | 0.5 (≈ 0.887 µM) | 2 (≈ 3.55 µM) | C[C@@](CCN1Cc2cc(C#Cc3ccc(CN4CCC(N)C(F)(F)C4)cc3)cn2C1=O)(C(=O)NO)S(C)(=O)=O (stereo partly drawn) [Example 14, (2R)-4-(6-((4-((4-amino-3,3-difluoropiperidin-1-yl)methyl)phenyl)ethynyl)-3-oxo-1H-pyrrolo[1,2-c]imidazol-2(3H)-yl)-N-hydroxy-2-methyl-2-(methylsulfonyl)butanamide]
18 | 0.5 (≈ 1.08 µM) | 1 (≈ 2.16 µM) | 1 (≈ 2.16 µM) | CN1C[C@@H](C#CC#Cc2cc3n(c2)C(=O)N(CC[C@](C)(C(=O)NO)S(C)(=O)=O)C3)[C@@H]1CO [Example 95, (2R)—N-hydroxy-4-(6-(((2R,3R)-2-(hydroxymethyl)-1-methylazetidin-3-yl)buta-1,3-diyn-1-yl)-3-oxo-1H-pyrrolo[1,2-c]imidazol-2(3H)-yl)-2-methyl-2-(methylsulfonyl)butanamide]
19 | 0.5 (≈ 1.08 µM) | 0.063 (≈ 0.136 µM) | 0.5 (≈ 1.08 µM) | C[C@@](CCN1Cc2cc(C#CC#CC3CN(CCF)C3)cn2C1=O)(C(=O)NO)S(C)(=O)=O [Example 61, (2R)-4-(6-((1-(2-fluoroethyl)azetidin-3-yl)buta-1,3-diyn-1-yl)-3-oxo-1H-pyrrolo[1,2-c]imidazol-2(3H)-yl)-N-hydroxy-2-methyl-2-(methylsulfonyl)butanamide]
20 | 4 (≈ 7.65 µM) | 1 (≈ 1.91 µM) | 2 (≈ 3.83 µM) | C[C@@](CCN1Cc2cc(C#CC#CC3CN(C4CS(=O)(=O)C4)C3)cn2C1=O)(C(=O)NO)S(C)(=O)=O [Example 63, (2R)-4-(6-((1-(1,1-dioxidothietan-3-yl)azetidin-3-yl)buta-1,3-diyn-1-yl)-3-oxo-1H-pyrrolo[1,2-c]imidazol-2(3H)-yl)-N-hydroxy-2-methyl-2-(methylsulfonyl)butanamide]
21 | 2 (≈ 3.54 µM) | 0.5 (≈ 0.886 µM) | 0.5 (≈ 0.886 µM) | C[C@@](CCN1Cc2cc(C#Cc3ccc(CN4CC[C@H](O)C(F)(F)C4)cc3)cn2C1=O)(C(=O)NO)S(C)(=O)=O [Example 37, (2R)-4-(6-((4-(((S)-3,3-difluoro-4-hydroxypiperidin-1-yl)methyl)phenyl)ethynyl)-3-oxo-1H-pyrrolo[1,2-c]imidazol-2(3H)-yl)-N-hydroxy-2-methyl-2-(methylsulfonyl)butanamide]
22 | 2 (≈ 3.66 µM) | 0.5 (≈ 0.915 µM) | 1 (≈ 1.83 µM) | C[C@@](CCN1Cc2cc(C#Cc3ccc(CN4CC[C@H](O)[C@H](F)C4)cc3)cn2C1=O)(C(=O)NO)S(C)(=O)=O (relative stereo) [Example 42, (2R)-4-(6-((4-(((3R*,4S*)-3-fluoro-4-hydroxypiperidin-1-yl)methyl)phenyl)ethynyl)-3-oxo-1H-pyrrolo[1,2-c]imidazol-2(3H)-yl)-N-hydroxy-2-methyl-2-(methylsulfonyl)butanamide]
